Source: BindingDB's records for doi:10.1016/j.bmcl.2008.02.015 (Deltagen Research Laboratories (Former Combichem), 2008)

test: Antagonist activity at human CCR2 in THP1 cells assessed as inhibition of MCP1-induced chemotaxis

IC50 [nM] | SMILES
103 | O=C(CNC(=O)c1cccc(C(F)(F)F)c1)N[C@@H]1CCN(Cc2ccc(OC(F)(F)F)cc2)C1
21 | CSc1ccc(CN2CC[C@@H](NC(=O)CNC(=O)c3cccc(C(F)(F)F)c3)C2)cc1
418 | O=C(CNC(=O)c1cccc(C(F)(F)F)c1)N[C@@H]1CCN(Cc2ccccc2)C1
14 | COc1cc(CN2CC[C@@H](NC(=O)CNC(=O)c3cc(C(F)(F)F)ccc3N)C2)ccc1O
8.8 | COc1ccc(CN2CC[C@@H](NC(=O)CNC(=O)c3cc(C(F)(F)F)ccc3N)C2)cc1N
11 | COc1ccc(CN2CC[C@@H](NC(=O)CNC(=O)c3cc(C(F)(F)F)ccc3N)C2)cc1
2.6 | Nc1ccc(C(F)(F)F)cc1C(=O)NCC(=O)N[C@@H]1CCN(Cc2ccc(Br)cc2)C1
22 | Nc1ccc(I)cc1C(=O)NCC(=O)N[C@@H]1CCN(Cc2ccc(Cl)cc2)C1
12 | Cc1ccc(CN2CC[C@@H](NC(=O)CNC(=O)c3cc(C(F)(F)F)ccc3N)C2)cc1N
11 | Nc1cc(CN2CC[C@@H](NC(=O)CNC(=O)c3cc(C(F)(F)F)ccc3N)C2)ccc1Cl
5.1 | Nc1ccc(C(F)(F)F)cc1C(=O)NCC(=O)N[C@@H]1CCN(Cc2ccc(O)cc2)C1
3.9 | C=Cc1ccc(CN2CC[C@@H](NC(=O)CNC(=O)c3cc(C(F)(F)F)ccc3N)C2)cc1
0.89 | CCc1ccc(CN2CC[C@@H](NC(=O)CNC(=O)c3cc(C(F)(F)F)ccc3N)C2)cc1
3.1 | Cc1ccc(CN2CC[C@@H](NC(=O)CNC(=O)c3cc(C(F)(F)F)ccc3N)C2)cc1
3.6 | Nc1ccc(C(F)(F)F)cc1C(=O)NCC(=O)N[C@@H]1CCN(Cc2ccc(Cl)cc2)C1
12.4 | Cc1ccc(CN2CC[C@@H](NC(=O)CNC(=O)c3cccc(C(F)(F)F)c3)C2)cc1
43 | Nc1ccc(OC(F)(F)F)cc1C(=O)NCC(=O)N[C@@H]1CCN(Cc2ccc(Cl)cc2)C1
43 | Nc1ccc([N+](=O)[O-])cc1C(=O)NCC(=O)N[C@@H]1CCN(Cc2ccc(Cl)cc2)C1
445 | O=C(CNC(=O)c1cccc([N+](=O)[O-])c1)N[C@@H]1CCN(Cc2ccc(Cl)cc2)C1

IC50 [nM] | SMILES
360 | O=C(CNC(=O)c1cccc(OC(F)(F)F)c1)N[C@@H]1CCN(Cc2ccc(Cl)cc2)C1
473 | O=C(CNC(=O)c1cccc(Br)c1)N[C@@H]1CCN(Cc2ccc(Cl)cc2)C1
74 | O=C(CNC(=O)c1cccc(C(F)(F)F)c1)N[C@@H]1CCN(Cc2ccccc2-c2ccc3ccccc3c2)C1
77 | COc1cc(CN2CC[C@@H](NC(=O)CNC(=O)c3cccc(C(F)(F)F)c3)C2)ccc1O
121 | O=C(CNC(=O)c1cccc(C(F)(F)F)c1)N[C@@H]1CCN(Cc2ccc(F)cc2)C1
5.5 | O=C(CNC(=O)c1cccc(C(F)(F)F)c1)N[C@@H]1CCN(Cc2ccc(O)cc2)C1
6.2 | C=Cc1ccc(CN2CC[C@@H](NC(=O)CNC(=O)c3cccc(C(F)(F)F)c3)C2)cc1
21 | O=C(CNC(=O)c1cccc(C(F)(F)F)c1)N[C@@H]1CCN(Cc2ccc(Br)cc2)C1
9.4 | CCc1ccc(CN2CC[C@@H](NC(=O)CNC(=O)c3cccc(C(F)(F)F)c3)C2)cc1
35 | COc1ccc(CN2CC[C@@H](NC(=O)CNC(=O)c3cccc(C(F)(F)F)c3)C2)cc1
127 | Cc1ccccc1CN1CC[C@@H](NC(=O)CNC(=O)c2cccc(C(F)(F)F)c2)C1
418 | O=C(CNC(=O)c1cccc(C(F)(F)F)c1)N[C@@H]1CCN(Cc2ccccc2Cl)C1
0.83 | Cc1ccc(CN2CC[C@@H](NC(=O)CNC(=O)c3cc(C(F)(F)F)ccc3N)C2)c(C)c1
10000 | O=C(CCNC(=O)c1cccc(C(F)(F)F)c1)N[C@@H]1CCN(Cc2ccc(Cl)cc2)C1
22000 | CC(NC(=O)c1cccc(C(F)(F)F)c1)C(=O)N[C@@H]1CCN(Cc2ccc(Cl)cc2)C1 (stereo partly drawn)
9.2 | COc1ccc(CN2CC[C@@H](NC(=O)CNC(=O)c3cc(C(F)(F)F)ccc3N)C2)cc1O
18 | Nc1cc(CN2CC[C@@H](NC(=O)CNC(=O)c3cc(C(F)(F)F)ccc3N)C2)ccc1O
16 | Cc1ccc(CN2CC[C@@H](NC(=O)CNC(=O)c3cccc(C(F)(F)F)c3)C2)c(C)c1 [(R)-N-(2-(1-(2,4-dimethylbenzyl)pyrrolidin-3-ylamino)-2-oxoethyl)-3-(trifluoromethyl)benzamide]
24 | O=C(CNC(=O)c1cccc(C(F)(F)F)c1)N[C@@H]1CCN(Cc2ccc(Cl)cc2)C1 [(R)-N-(2-(1-(4-chlorobenzyl)pyrrolidin-3-ylamino)-2-oxoethyl)-3-(trifluoromethyl)benzamide]
